Reference: US8440708B2, “Triazole-substituted arylamides as P2X3 and P2X2/3 antagonists” (Roche Palo Alto LLC, priority 2007, dated 2013)

Legend:
[1] = target: T1, rat P2X3 receptor (Rattus norvegicus, UniProt P49654); assay: P2X3/P2X2/3 FLIPR (Fluorometric Imaging Plate Reader) Assay, P2X3; assay type: cell-based; conditions: CHO-K1 cells transfected with rat P2X3; agonist α,β-meATP 1 μM; Table 1; read-out: P2X3 pKi (converted)
T1 construct: expressed in transfected cells; host or cells: CHO-K1
T1 sequence (P49654 1-397): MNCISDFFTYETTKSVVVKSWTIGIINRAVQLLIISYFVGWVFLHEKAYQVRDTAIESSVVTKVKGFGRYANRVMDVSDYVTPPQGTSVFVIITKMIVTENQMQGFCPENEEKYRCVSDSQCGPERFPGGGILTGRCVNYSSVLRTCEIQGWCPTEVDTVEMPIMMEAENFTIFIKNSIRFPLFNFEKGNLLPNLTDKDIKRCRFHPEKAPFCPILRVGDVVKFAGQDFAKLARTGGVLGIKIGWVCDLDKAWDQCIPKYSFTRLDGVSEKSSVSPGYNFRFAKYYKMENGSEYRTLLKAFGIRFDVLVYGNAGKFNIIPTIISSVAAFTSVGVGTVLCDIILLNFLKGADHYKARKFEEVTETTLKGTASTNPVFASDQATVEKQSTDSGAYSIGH
Description: (§1) P2X3/P2X2/3 FLIPR (Fluorometric Imaging Plate Reader) Assay
(§2) CHO-K1 cells were transfected with cloned rat P2X3 or human P2X2/3 receptor subunits and passaged in flasks. 18-24 hours before the FLIPR experiment, cells were released from their flasks, centrifuged, and resuspended in nutrient medium at 2.5×10^5 cells/ml. The cells were aliquoted into black-walled 96-well plates at a density of 50,000 cells/well and incubated overnight in 5% CO2 at 37° C. On the day of the experiment, cells were washed in FLIPR buffer (calcium- and magnesium-free Hank's balanced salt solution, 10 mM HEPES, 2 mM CaCl2, 2.5 mM probenecid; FB). Each well received 100 μl FB and 100 μl of the fluorescent dye Fluo-3 AM [2 μM final conc.]. After a 1 hour dye loading incubation at 37° C., the cells were washed 4 times with FB, and a final 75 μl/well FB was left in each well.
(§3) Test compounds (dissolved in DMSO at 10 mM and serially diluted with FB) or vehicle were added to each well (25 μl of a 4× solution) and allowed to equilibrate for 20 minutes at room temperature. The plates were then placed in the FLIPR and a baseline fluorescence measurement (excitation at 488 nm and emission at 510-570 nm) was obtained for 10 seconds before a 100 μl/well agonist or vehicle addition. The agonist was a 2× solution of α,β-meATP producing a final concentration of 1 μM (P2X3) or 5 μM (P2X2/3). Fluorescence was measured for an additional 2 minutes at 1 second intervals after agonist addition. A final addition of ionomycin (5 μM, final concentration) was made to each well of the FLIPR test plate to establish cell viability and maximum fluorescence of dye-bound cytosolic calcium. Peak fluorescence in response to the addition of α,β-meATP (in the absence and presence of test compounds) was measured and inhibition curves generated using nonlinear regression. PPADS, a standard P2X antagonist, was used as a positive control.

[2] = target: T2, human P2X2/3 receptor (Homo sapiens, UniProt P56373+Q9UBL9); assay: P2X3/P2X2/3 FLIPR (Fluorometric Imaging Plate Reader) Assay, P2X2/3; assay type: cell-based; conditions: CHO-K1 cells transfected with human P2X2/3; agonist α,β-meATP 5 μM; Table 1; read-out: P2X2/3 pKi (converted)
T2 construct: expressed in transfected cells; host or cells: CHO-K1
T2 sequence (Q9UBL9 1-471): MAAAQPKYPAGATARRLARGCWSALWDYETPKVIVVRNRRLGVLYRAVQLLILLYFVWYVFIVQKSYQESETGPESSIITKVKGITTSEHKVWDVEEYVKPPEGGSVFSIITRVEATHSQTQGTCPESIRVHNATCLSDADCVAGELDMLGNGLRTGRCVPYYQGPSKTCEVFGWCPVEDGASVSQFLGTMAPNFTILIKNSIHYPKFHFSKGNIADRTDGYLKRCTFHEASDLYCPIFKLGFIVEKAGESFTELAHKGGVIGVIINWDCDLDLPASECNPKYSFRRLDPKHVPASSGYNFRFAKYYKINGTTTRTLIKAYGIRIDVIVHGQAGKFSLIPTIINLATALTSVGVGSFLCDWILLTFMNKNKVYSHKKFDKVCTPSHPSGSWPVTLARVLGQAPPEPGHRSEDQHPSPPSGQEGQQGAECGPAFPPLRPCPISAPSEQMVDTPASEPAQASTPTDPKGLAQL
T2 sequence (P56373 1-397): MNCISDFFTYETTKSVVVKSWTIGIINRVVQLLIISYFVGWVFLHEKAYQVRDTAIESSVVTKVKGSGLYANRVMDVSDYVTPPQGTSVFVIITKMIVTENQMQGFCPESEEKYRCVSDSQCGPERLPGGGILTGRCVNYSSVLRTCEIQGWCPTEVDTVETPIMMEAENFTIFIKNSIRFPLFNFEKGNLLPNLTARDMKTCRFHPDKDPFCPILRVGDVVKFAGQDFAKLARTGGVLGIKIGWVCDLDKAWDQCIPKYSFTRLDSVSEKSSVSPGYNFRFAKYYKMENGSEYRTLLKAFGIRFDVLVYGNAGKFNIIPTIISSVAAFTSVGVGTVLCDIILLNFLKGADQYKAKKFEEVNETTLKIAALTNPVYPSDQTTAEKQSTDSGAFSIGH
Description: as §1, §2, §3

Ki [1] | Ki [2] | SMILES
1820 nM |  | COCC(C)NC(=O)c1cc(-c2ccc(C)cc2)cc(-n2ccnn2)c1 (centres unmarked) [Compound 1, 4′-Methyl-5-[1,2,3]triazol-1-yl-biphenyl-3-carboxylic acid (2-methoxy-1-methyl-ethyl)-amide]
1450 nM | 10200 nM | COCC(C)NC(=O)c1cc(-c2ccc(C)cc2)cc(-n2cncn2)c1 (centres unmarked) [Compound 2, 4′-Methyl-5-[1,2,4]triazol-1-yl-biphenyl-3-carboxylic acid (2-methoxy-1-methyl-ethyl)-amide]
2950 nM |  | COCC(C)NC(=O)c1cc(-c2ccc(C)cc2)cc(-n2nccn2)c1 (centres unmarked) [Compound 3, 4′-Methyl-5-[1,2,3]triazol-2-yl-biphenyl-3-carboxylic acid (2-methoxy-1-methyl-ethyl)-amide]
437 nM | 1230 nM | Cc1ccc(-c2cc(C(=O)NC(C)c3cnccn3)cc(-c3nnc4ccccn34)c2)c(F)c1 (centres unmarked) [Compound 4, 2′-Fluoro-4′-methyl-5-[1,2,4]triazolo[4,3-a]pyridin-3-yl-biphenyl-3-carboxylic acid (1-pyrazin-2-yl-ethyl)-amide]
603 nM | 2820 nM | COCC(C)NC(=O)c1cc(-c2ccc(C)cc2)cc(-n2nncc2C)c1 (centres unmarked) [Compound 5, 4′-Methyl-5-(5-methyl-[1,2,3]triazol-1-yl)-biphenyl-3-carboxylic acid (2-methoxy-1-methyl-ethyl)-amide]
269 nM | 2040 nM | COC[C@@H](C)NC(=O)c1cc(-c2ccc(C)cc2)cc(-n2nncc2C)c1 [Compound 6, 4′-Methyl-5-(5-methyl-[1,2,3]triazol-1-yl)-biphenyl-3-carboxylic acid ((R)-2-methoxy-1-methyl-ethyl)-amide]
3.72 nM | 191 nM | Cc1ccc(-c2cc(C(=O)NC(C)c3cnccn3)cc(-n3nncc3C)c2)cc1 (centres unmarked) [Compound 7, 4′-Methyl-5-(5-methyl-[1,2,3]triazol-1-yl)-biphenyl-3-carboxylic acid (1-pyrazin-2-yl-ethyl)-amide]
3.72 nM | 309 nM | Cc1ccc(-c2cc(C(=O)N[C@@H](C)CO)cc(-n3nncc3C(C)C)c2)cc1 [Compound 8, 5-(5-Isopropyl-[1,2,3]triazol-1-yl)-4′-methyl-biphenyl-3-carboxylic acid ((S)-2-hydroxy-1-methyl-ethyl)-amide]
18.6 nM | 501 nM | COCC(C)NC(=O)c1cc(-c2ccc(C)cc2)cc(-n2nncc2C(C)C)c1 (centres unmarked) [Compound 9, 5-(5-Isopropyl-[1,2,3]triazol-1-yl)-4′-methyl-biphenyl-3-carboxylic acid (2-methoxy-1-methyl-ethyl)-amide]
7.41 nM | 324 nM | COC[C@@H](C)NC(=O)c1cc(-c2ccc(C)cc2)cc(-n2nncc2C(C)C)c1 [Compound 10, 5-(5-Isopropyl-[1,2,3]triazol-1-yl)-4′-methyl-biphenyl-3-carboxylic acid ((R)-2-methoxy-1-methyl-ethyl)-amide]
5.25 nM | 257 nM | Cc1ccc(-c2cc(C(=O)NC(C)CO)cc(-n3nncc3C(C)C)c2)cc1 (centres unmarked) [Compound 11, 5-(5-Isopropyl-[1,2,3]triazol-1-yl)-4′-methyl-biphenyl-3-carboxylic acid (2-hydroxy-1-methyl-ethyl)-amide]
7.94 nM | 31.6 nM | Cc1ccc(-c2cc(C(=O)NC(C)c3cnccn3)cc(-n3nncc3C(C)C)c2)cc1 (centres unmarked) [Compound 12, 5-(5-Isopropyl-[1,2,3]triazol-1-yl)-4′-methyl-biphenyl-3-carboxylic acid (1-pyrazin-2-yl-ethyl)-amide]
75.9 nM | 8130 nM | Cc1ccc(-c2cc(C(=O)N[C@@H](C)CO)cc(-n3nncc3C)c2)cc1 [Compound 13, 4′-Methyl-5-(5-methyl-[1,2,3]triazol-1-yl)-biphenyl-3-carboxylic acid ((S)-2-hydroxy-1-methyl-ethyl)-amide]
12 nM | 1020 nM | COCC(C)NC(=O)c1cc(-c2ccc(C)cc2)cc(-n2ncnc2C(C)C)c1 (centres unmarked) [Compound 14, 5-(5-Isopropyl-[1,2,4]triazol-1-yl)-4′-methyl-biphenyl-3-carboxylic acid (2-methoxy-1-methyl-ethyl)-amide]
10.2 nM | 813 nM | COC[C@@H](C)NC(=O)c1cc(-c2ccc(C)cc2)cc(-n2ncnc2C(C)C)c1 [Compound 15, 5-(5-Isopropyl-[1,2,4]triazol-1-yl)-4′-methyl-biphenyl-3-carboxylic acid ((R)-2-methoxy-1-methyl-ethyl)-amide]
100 nM |  | COC[C@@H](C)NC(=O)c1cc(-c2ccc(C)cc2)cc(-n2nc(C)nc2C(C)C)c1 [Compound 27, 5-(5-Isopropyl-3-methyl-[1,2,4]triazol-1-yl)-4′-methyl-biphenyl-3-carboxylic acid ((R)-2-methoxy-1-methyl-ethyl)-amide]
117 nM |  | CCn1cnnc1-c1cc(C(=O)N[C@@H](C)CO)cc(-c2ccc(C)cc2)c1 [Compound 42, 5-(4-Ethyl-4H-[1,2,4]triazol-3-yl)-4′-methyl-biphenyl-3-carboxylic acid ((S)-2-hydroxy-1-methyl-ethyl)-amide]
170 nM |  | Cc1ccc(-c2cc(C(=O)NC3CC3)cc(-n3ncnc3C)c2)nc1 [Compound 68, N-Cyclopropyl-3-(5-methyl-pyridin-2-yl)-5-(5-methyl-[1,2,4]triazol-1-yl)-benzamide]
17.8 nM |  | Cc1ccc(-c2cc(C(=O)N[C@@H](C)CO)cc(-n3ncnc3CC(F)F)c2)nc1 [Compound 146, 3-[5-(2,2-Difluoro-ethyl)-[1,2,4]triazol-1-yl]-N-((S)-2-hydroxy-1-methyl-ethyl)-5-(5-methyl-pyridin-2-yl)-benzamide]
151 nM |  | COCCc1nc(C)nn1-c1cc(C(=O)NCc2cnc(C)cn2)cc(-c2ccc(C)cn2)c1 [Compound 154, 3-[5-(2-Methoxy-ethyl)-3-methyl-[1,2,4]triazol-1-yl]-N-(5-methyl-pyrazin-2-ylmethyl)-5-(5-methyl-pyridin-2-yl)-benzamide]
74.1 nM |  | Cc1ccc(-c2cc(C(=O)N[C@@H](C)CO)cc(-n3ncnc3C(F)(F)F)c2F)nc1 [Compound 165, 4-Fluoro-N-((S)-2-hydroxy-1-methyl-ethyl)-3-(5-methyl-pyridin-2-yl)-5-(5-trifluoromethyl-[1,2,4]triazol-1-yl)-benzamide]
3.72 nM |  | Cc1ccc(-c2cc(C(=O)NC(C)c3cnccn3)cc(-n3ncnc3C(F)(F)F)c2F)nc1 (centres unmarked) [Compound 170, 4-Fluoro-3-(5-methyl-pyridin-2-yl)-N-(1-pyrazin-2-yl-ethyl)-5-(5-trifluoromethyl-[1,2,4]triazol-1-yl)-benzamide]
